These are literature values, as cited in paper PMC6784077 (Viruses, 2019).

For the substance enfuvirtide, the t1/2 was ~ 1.5 h.
